Marks after values point to notes of the source that are not given here.
Conditions: pH 2.7

Row | Log P | SMILES
1 | 2.56^[a] | CCOC(=O)C(C#N)=C(NC(COC)COC)c1cccnc1Cl [Compound 1358]
2 | 2.92^[a] | CCOC(=O)C(C#N)=C(NC(C)CC(F)(F)F)c1cccnc1Cl (stereo not shown) [Compound 1366]
3 | 2.92^[a] | CCOC(=O)C(C#N)=C(NC(CC)COC)c1cccnc1Cl (stereo not shown) [Compound 1367]
4 | 2.45^[a] | CCCC(CO)NC(=C(C#N)C(=O)OCC)c1cccnc1Cl (stereo not shown) [Compound 1368]
5 | 3.35^[a] | CCOC(=O)C(C#N)=C(NC(CC)CC)c1cccnc1Cl [Compound 1371]
6 | 3.31^[a] | CCOCC(CC)NC(=C(C#N)C(=O)OCC)c1cccnc1Cl (stereo not shown) [Compound 1372]
7 | 3.31^[a] | CCCC(COC)NC(=C(C#N)C(=O)OCC)c1cccnc1Cl (stereo not shown) [Compound 1375]
8 | 3.27^[a] | CCCc1nccc(C(NC(C)c2nccs2)=C(C#N)C(=O)OCC)c1Cl (stereo not shown) [Compound 1382]
9 | 2.92^[a] | CCOC(=O)C(C#N)=C(NC(C)c1nccs1)c1ccnc(CC)c1Cl (stereo not shown) [Compound 1383]
10 | 3.64^[a] | CCOC(=O)C(C#N)=C(NC(C)c1nccs1)c1ccnc(CC(C)C)c1Cl (stereo not shown) [Compound 1384]
11 | 2.1^[a] | CCOC(=O)C(C#N)=C(NC(C)C(=O)NC)c1ccnc(Cl)c1Cl (stereo not shown) [Compound 1387]
12 | 3.06^[a] | CCOC(=O)C(C#N)=C(NC(C)COC)c1ccnc(Cl)c1Cl (stereo not shown) [Compound 1392]
13 | 4.02^[a] | CCOC(=O)C(C#N)=C(NC(C)C(C)C)c1ccnc(CC)c1Cl (stereo not shown) [Compound 1399]
14 | 4.41^[a] | CCCc1nccc(C(NC(C)C(C)C)=C(C#N)C(=O)OCC)c1Cl (stereo not shown) [Compound 1400]
15 | 4.44^[a] | CCOC(=O)C(C#N)=C(NC(C)C(C)C)c1ccnc(SC)c1Cl (stereo not shown) [Compound 1401]
16 | 4.81^[a] | CCOC(=O)C(C#N)=C(NC(C)C(C)C)c1ccnc(CC(C)C)c1Cl (stereo not shown) [Compound 1402]
17 | 4.34^[a] | CCOC(=O)C(C#N)=C(NC(C)C(C)C)c1ccnc(-c2ccccc2)c1Cl (stereo not shown) [Compound 1403]
18 | 3.92^[a] | CCOC(=O)C(C#N)=C(NC(C)C(C)C)c1ccnc(Cl)c1Br (stereo not shown) [Compound 1405]
19 | 3.53^[a] | CCNC(=O)C(C#N)=C(NC(C)C(C)C)c1ccnc(Cl)c1Br (stereo not shown) [Compound 1408]
20 | 3.96^[a] | CCOC(=O)C(C#N)=C(NC(C)C(C)C)c1ccnc(Br)c1Br (stereo not shown) [Compound 1410]

More lines, now with the values behind:

Row | SMILES | Log P
21 | CCOC(=O)C(C#N)=C(NC1CCC(OCC)CC1)c1cn(C)nc1C(F)F (stereo not shown) [Compound 1337] | 3.08^[a]
22 | CCOC(=O)C(C#N)=C(NC(CC)CC)c1cn(C)nc1C(F)F [Compound 1338] | 3.15^[a]
23 | CCOC(=O)C(C#N)=C(NC1COC1)c1cn(C)nc1C(F)F [Compound 1339] | 1.79^[a]
24 | CCOC(=O)C(C#N)=C(NCC1(C)CCCO1)c1cn(C)nc1C(F)F (stereo not shown) [Compound 1340] | 2.54^[a]
25 | CCOC(=O)C(C#N)=C(NC(COC)COC)c1cn(C)nc1C(F)F [Compound 1341] | 2.42^[a]
26 | CCOC(=O)C(C#N)=C(NC(CC)CC#N)c1cn(C)nc1C(F)F (stereo not shown) [Compound 1342] | 2.39^[a]
27 | CCCC(CC)NC(=C(C#N)C(=O)OCC)c1cn(C)nc1C(F)F (stereo not shown) [Compound 1343] | 3.51^[a]
28 | CCOC(=O)C(C#N)=C(NC(C)CC(F)(F)F)c1cn(C)nc1C(F)F (stereo not shown) [Compound 1346] | 2.77^[a]
29 | CCOC(=O)C(C#N)=C(NCCOc1ccccc1Br)c1cn(C)nc1C(F)F [Compound 1347] | 3.35^[a]
30 | CCOC(=O)C(C#N)=C(NCC(C)c1ccccc1Br)c1cn(C)nc1C(F)F (stereo not shown) [Compound 1348] | 3.69^[a]
31 | CCOC(=O)C(C#N)=C(NC(C(=O)OCC)c1ccccc1)c1cn(C)nc1C(F)F (stereo not shown) [Compound 1349] | 3.25^[a]
32 | CCOCC(NC(=C(C#N)C(=O)OCC)c1cn(C)nc1C(F)F)C(C)C (stereo not shown) [Compound 1350] | 3.39^[a]
33 | CCOCC(CC)NC(=C(C#N)C(=O)OCC)c1cn(C)nc1C(F)F (stereo not shown) [Compound 1351] | 3.08^[a]
34 | CCOC(=O)C(C#N)=C(NC1CCCC1OC)c1cn(C)nc1C(F)F (stereo not shown) [Compound 1352] | 2.78^[a]
35 | CCOC(=O)C(C#N)=C(NC1CCCC1OCC)c1cn(C)nc1C(F)F (stereo not shown) [Compound 1353] | 3.21^[a]
36 | CCCC(COCC)NC(=C(C#N)C(=O)OCC)c1cn(C)nc1C(F)F (stereo not shown) [Compound 1354] | 3.44^[a]
37 | CCOC(=O)C(C#N)=C(NC1CSC1)c1cn(C)nc1C(F)F [Compound 1355] | 2.54^[a]
38 | CCOC(=O)C(C#N)=C(NC1COC1)c1cccnc1Cl [Compound 1356] | 1.84^[a]
39 | CCOC(=O)C(C#N)=C(NCC1(C)CCCO1)c1cccnc1Cl (stereo not shown) [Compound 1357] | 2.7^[a]
40 | CCOC(=O)C(C#N)=C(NC(CC)CC#N)c1cccnc1Cl (stereo not shown) [Compound 1359] | 2.51^[a]

Row | SMILES | Log P
41 | CCOC(=O)C(C#N)=C(NC1(c2ccc(Cl)cc2)CC1)c1cn(C)nc1C(F)F [Compound 1360] | 3.58^[a]
42 | CCOC(=O)C(C#N)=C(NC1(c2cccc(Cl)c2)CC1)c1cn(C)nc1C(F)F [Compound 1361] | 3.51^[a]
43 | CCOC(=O)C(C#N)=C(NC1(c2ccccc2Cl)CC1)c1cn(C)nc1C(F)F [Compound 1362] | 3.35^[a]
44 | CCOC(=O)C(C#N)=C(NC(c1ccc(Cl)cc1)C1CC1)c1cn(C)nc1C(F)F (stereo not shown) [Compound 1363] | 3.89^[a]
45 | CCOC(=O)C(C#N)=C(NC1(c2ccccc2)CC1)c1cn(C)nc1C(F)F [Compound 1364] | 3.21^[a]
46 | CCOC(=O)C(C#N)=C(NC(C)c1ccccc1C)c1cn(C)nc1C(F)F (stereo not shown) [Compound 1365] | 3.46^[a]
47 | CCOC(=O)C(C#N)=C(NC1CCS(=O)(=O)C1)c1cccnc1Cl (stereo not shown) [Compound 1369] | 1.84^[a]
48 | CCOC(=O)C(C#N)=C(NC1CCC(OCC)CC1)c1cccnc1Cl (stereo not shown) [Compound 1370] | 3.31^[a]
49 | CCOC(=O)C(C#N)=C(NC1CCCC1OCC)c1cccnc1Cl (stereo not shown) [Compound 1373] | 3.44^[a]
50 | CCOC(=O)C(C#N)=C(NC1CSC1)c1cccnc1Cl [Compound 1374] | 2.64^[a]
51 | CCOCC(COCC)NC(=C(C#N)C(=O)OCC)c1cccnc1Cl [Compound 1376] | 3.33^[a]
52 | CCOC(=O)C(C#N)=C(NCCOc1ccccc1Br)c1cccnc1Cl [Compound 1377] | 3.53^[a]
53 | CCOC(=O)C(C#N)=C(NCC(C)c1ccccc1Br)c1cccnc1Cl (stereo not shown) [Compound 1378] | 3.94^[a]
54 | CCOC(=O)C(C#N)=C(NC(C(=O)OCC)c1ccccc1)c1cccnc1Cl (stereo not shown) [Compound 1379] | 3.39^[a]
55 | CCOC(=O)C(C#N)=C(NC(C)c1nccs1)c1ccnc(-c2ccccc2)c1Cl (stereo not shown) [Compound 1385] | 3.31^[a]
56 | CCOC(=O)C(C#N)=C(Nc1ccccc1SC)c1ccnc(Cl)c1Cl [Compound 1388] | 3.89^[a]
57 | CCOC(=O)C(C#N)=C(NCc1ncccc1Cl)c1cccnc1Cl [Compound 1412] | 2.78^[a]
58 | CCOC(=O)C(C#N)=C(NCc1ncccc1Cl)c1cccnc1Cl [Compound 1413] | 2.77^[a]
59 | CCOC(=O)C(C#N)=C(NC(C)c1nc(C2CC2)cs1)c1cccnc1Cl (stereo not shown) [Compound 1416] | 3.37^[a]

Same assay, conditions: pH 7.5

Row | SMILES | Log P
60 | CCOC(=O)C(C#N)=C(NC(C)c1ccccn1)c1ccc(C)nc1Cl (stereo not shown) [Compound 1380] | 2.67
61 | CCOC(=O)C(C#N)=C(NC(C)c1ccccn1)c1ccc(Cl)nc1Cl (stereo not shown) [Compound 1381] | 3.06

Source: patent US8476197B2, “Aminopropenoates as fungicides” (priority 2009, dated 2013)
